Data from EP4759810A1, “PROTAC TARGETING BCL-XL PROTEIN AND USE THEREOF” (BEIJING SUNCELL BIO-MEDICAL CO., LTD., priority 2023, dated 2025).
Read-outs that look alike come from different tables or passages of the source.

Columns and labels:
Molt-4 cells [1] = assay: Molt-4 cell killing activity test (CCK-8); assay type: cell-based; settings: for killing Molt-4 cells at different concentrations (Figure 1), in words: 0.001-3 µM, comparison with control molecules; for EC50: Homo sapiens
In short: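 Molt-4 cells in RPMI-1640 with 10% FBS were exposed to compounds at 0.001–3 µM final, triplicate wells, for three days at 37°C. Viability was read by CCK-8 absorbance at 450 nm after 0.5–2 h, expressed relative to blank control.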

HEF cells = assay: Senescent cell killing activity test, HEF cell model (CCK-8); assay type: cell-based, human; settings: for toxicity on normal non-senescent HEF cells: higher concentration (25 µM)
Experimental: (§1) To avoid replication of the induced senescent cells, low-passage proliferating HEF cells (<10 passages), MRC5 cells (<6 passages), and BJ cells (<10 passages) were used as normal controls. For chemical drug induced senescence, HEF cells were treated with 10 µM etoposide (Selleck, S1225) for 36-48 hours, MRC5 cells were treated with 5 µM bleomycin (Selleck, S1225) for 72 hours, and BJ cells were treated with 10 µg/mL bleomycin for 72 hours. Three days after the treatment, the cells were subcultured in fresh culture medium at a 1:3 ratio for 72 hours before further analysis and use.
(§2) Non-senescent and induced-senescent HEF cells, non-senescent and induced-senescent MRC5 cells, and non-senescent and induced-senescent BJ cells were respectively digested with trypsin, and centrifuged at 1000 rpm for 5 minutes. Then, the supernatant was removed, and the cells were resuspended in fresh DMEM culture medium containing 10% fetal bovine serum for counting. The cell density was adjusted so that the non-senescent cell density was 4000 cells/100 µL and the senescent cell density was 7000 cells/100 µL. 100 µL of the cell suspension was added to each well of a 96-well transparent cell culture plate. It was noted that the edge wells of the 96-well plate were not used as testing wells, and 300 µL of PBS alone was added to these wells to reduce evaporation of the culture medium. The 96-well plates with the well-plated cells were placed back in a 37°C incubator for overnight culture until the cells adhered. On the next day, the small molecule compounds to be tested were prepared and added after the cells had adhered.
(§3) A series of small molecule concentration gradients (0.01, 0.03, 0.1, 0.3, 1, 3, 10, and 25 µM) were pre-set, and a series of 2× drug dilutions for the above concentrations were prepared in DMEM culture medium containing 10% fetal bovine serum. 100 µL of the above DMEM culture medium containing the gradient concentrations of the drug was added to each well of the 96-well plate that had been well-plated with cells, so that the final drug concentration in each well was the pre-set series of concentrations. Three replicate wells were used for each test drug concentration. The 96-well plates were placed back in a 37°C incubator, and cell viability was measured after three days.
(§4) Three days after adding the drug, the plates were taken out, and the supernatant was discarded. 100 µL of pre-prepared CCK-8 working solution was added to each well. The CCK-8 working solution was obtained through diluting a CCK-8 stock solution (C0041, Beyotime) with a serum-free DMEM culture medium by 10-fold volumn. The 96-well plates containing the CCK-8 working solution were placed back in the 37°C incubator and incubated for 0.5-2 hours. The plates were then taken out, and the absorbance value (OD value) of each well was measured at a wavelength of 450 nm. The cell viability in each experimental group was calculated according to the following formula: Relative cell viability (%) = (Blank control group - Experimental group) / Blank control group × 100%.

Bcl-xL protein = target: T1, Bcl-xL protein (Homo sapiens, UniProt Q07817); assay: Degradation experiment of Bcl-xL target protein (Western blot in Molt-4 cells); assay type: cell-based; settings: 100 nM, 0, 2, 6, 16 h, GAPDH internal control, Figure 4
T1 construct: host or cells: Molt-4 cells
T1 sequence (Q07817 whole entry): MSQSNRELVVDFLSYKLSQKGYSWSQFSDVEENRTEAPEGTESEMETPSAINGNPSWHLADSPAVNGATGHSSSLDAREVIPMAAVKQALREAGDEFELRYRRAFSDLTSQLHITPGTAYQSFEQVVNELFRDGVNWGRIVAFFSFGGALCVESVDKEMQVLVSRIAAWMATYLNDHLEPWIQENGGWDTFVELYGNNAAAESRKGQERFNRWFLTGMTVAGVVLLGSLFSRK
Experimental: Actively growing and healthy Molt-4 cells were subcultured into a fresh RPMI-1640 medium containing 10% fetal bovine serum, and each PROTAC molecule was added thereto at a final concentration of 100 nM. After drug treatment for the specified times (0, 2, 6, and 16 hours), the cells were collected, the supernatant was discarded by centrifugation, and the cells were washed twice with pre-cooled PBS buffer. Total protein was extracted with a lysis buffer (Servicebio, G2002-100ML), and the protein concentration was normalized by using a BCA protein quantification kit (Servicebio, G2026). Protein samples were mixed with a protein-loading buffer and incubated at 95°C for 5 minutes. Western blotting experiments were performed by using the following antibodies: Bcl-xL (Abcam, catalog number ab32370), diluted at 1:500; GAPDH antibody (Servicebio, catalog number GB15004), diluted at 1:1000; and horseradish peroxidase-conjugated goat anti-rabbit secondary antibody (Servicebio, catalog number GB23303), diluted at 1:5000.

Molt-4 cells [2] = assay: Detection of E3 enzyme-dependence: Molt-4 cell killing with or without pomalidomide (CCK-8); assay type: cell-based; settings: 10 µM pomalidomide, Figure 2
Experimental: Actively growing and healthy Molt-4 cells were collected, centrifuged at 1000 rpm for 5 minutes, and after removing the supernatant, the cells were resuspended in fresh RPMI-1640 medium containing 10% fetal bovine serum. Cell counting was then performed. The cell density was adjusted to 120,000 cells per milliliter, and 100 µL of the cell suspension was added to each well of a 96-well transparent cell culture plate. It was noted that the edge wells of the 96-well plate were not used for testing, and 300 µL of PBS alone was added to these wells to reduce medium evaporation.
Molt-4 cells were plated in duplicate according to the number of the tested small molecules, so as to test the effects with and without the addition of pomalidomide (a competitive ligand specific for E3 ligase), in which one half of the parallel cells was added 10 µM pomalidomide. A series of small molecule concentration gradients (0.001, 0.003, 0.01, 0.03, 0.1, 0.3, 1, and 3 µM) were pre-set, and a series of 2× drug dilutions for the above concentrated were prepared in DMEM medium containing 10% fetal bovine serum. 100 µL of the above DMEM medium containing the gradient concentrations of the drug was added to 96-well plates that have been pre-plated with cells, so that the final drug concentration in each well was the pre-set series of concentrations respectively. Three replicate wells were used for each test drug concentration. The 96-well plates were placed back in a 37°C incubator, and the cell viability was detected after three days.
Cell viability after drug treatment was detected by using the CCK-8 method: three days after adding the drugs, the plates were taken out, and the supernatant was discarded. Then, 100 µL of pre-prepared CCK-8 working solution was added to each well. The CCK-8 working solution was obtained through diluting a CCK-8 stock solution (C0041, Beyotime) by 10-fold volumn with a serum-free DMEM culture medium. The 96-well plates with the added CCK-8 working solution were placed back in the 37°C incubator and incubated for 0.5-2 hours. The plates were then taken out, and the absorbance value (OD value) of each well was measured at a wavelength of 450 nm. The cell viability in each experimental group was calculated according to the following formula: Relative cell viability (%) = (Blank control group - Experimental group) / Blank control group × 100%.

platelets = assay: In vivo platelet toxicity test in mice; settings: intraperitoneal
Experimental: The in vivo platelet toxicity test was performed by using 5-6 week old female C57BL/6J mice. The C57BL/6J mice were purchased from Beijing Vital River Laboratory Animal Technology Co., Ltd. and housed under specific pathogen-free (SPF) conditions, with a 12-hour light/12-hour dark cycle, and free access to food and water. […] Different doses of the molecules to be tested (e.g., 0.1, 0.5, 2.5 mg/kg or 2, 5, 20 mg/kg) were prepared in advance with the aforementioned vehicle, and administered to mice via intraperitoneal injection at a volume of 200 µL for each mouse. After administration was completed, approximately 50 µL of blood was collected from each mouse at different time points via the intra-canthus sampling method into EDTA anticoagulant tubes (RAM Scientific), then a routine analysis of blood was performed by using a hematology analyzer, and the platelets was counted.

MRC5 cells = assay: Senescent cell killing activity test, MRC5 cell model (CCK-8); assay type: cell-based, human; settings: for activity for killing senescent cells at lower concentrations compared to A-1331852: 0.01 µM and 0.03 µM; for selectivity for senescent cells: Figures 3G-3L
Experimental: as §1, §2, §3, §4

BJ cells = assay: Senescent cell killing activity test, BJ cell model (CCK-8); assay type: cell-based, human; settings: Figures 3M-3O; for killing effects for senescent cells: bleomycin-induced senescent skin-derived BJ cell model
Experimental: as §1, §2, §3, §4

[3] = Metabolic stability assay in liver microsomes (human); assay type: in vitro ADME
Experimental: (§5) The metabolic reaction of compounds in liver microsome was performed in a system with a total volume of 400 µL, and the following steps below were sequentially performed for the reaction and detection: 1) 200 µL of phosphate buffer (200 mM), 106 µL of sterile ultrapure water, and 40 µL of magnesium chloride solution (50 mM) were added to each detection tube to prepare a reaction working solution. 2) Two reaction systems with or without adding NADPH were prepared for each compound to be tested. For the reaction system with adding NADPH: 10 µL of liver microsomes (20 mg/mL) and 40 µL of NADPH (10 mM) were added to the above working solution; for the reaction system without adding NADPH: 10 µL of liver microsomes (20 mg/mL) and 40 µL of sterile ultrapure water were added to the above working solution. The final concentration of liver microsomes in both reaction systems was 0.5 mg/mL. 3) 4 µL of the compound to be tested ([…]) was added to each reaction tube, resulting in a final concentration of 1 µM for the compound in the reaction system. The detection tubes were placed at 37°C for reaction. 4) 50 µL samples were taken from each detection tube at 0, 15, 30, 45, and 60 minutes after adding the compound. The reaction was terminated by adding cold acetonitrile containing IS (100 nM alprazolam, 200 nM labetalol, 200 nM caffeine, and 2 µM ketoprofen) in a 4× volume. The samples were centrifuged at 3220 g for 40 minutes, 100 µL of the supernatant was mixed with 100 µL of ultrapure water, and a sample was taken for LC-MS/MS analysis.
(§6) Calculation of in vitro liver microsomal metabolic half-life and in vitro metabolic intrinsic clearance rate: The LC-MS detection results were analyzed to obtain the percentage of the remaining amount of the tested compound relative to the initial amount at each time point. The natural logarithm of the remaining percentage was linearly fitted against the incubation time.

[4] = Metabolic stability assay in liver microsomes (mouse); assay type: in vitro ADME
Experimental: as §5, §6

[5] = 72 h, Molt-4 cells, three days, CCK-8, read-out: EC50 (Molt-4)
[6] = Bcl-xL-positive Molt-4 cells, read-out: cellular activity / killing activity (Molt-4 cells)
[7] = human liver microsomes 0.5 mg/mL, 1 µM compound, 37°C
[8] = mouse liver microsomes 0.5 mg/mL, 1 µM compound, 37°C

O=C1CCN(c2ccc(N3CCN(CC#Cc4ccc(OCCCc5ccc(N6CCc7cccc(C(=O)Nc8nc9ccccc9s8)c7C6)nc5C(=O)O)c(F)c4)CC3)cc2)C(=O)N1 [APQ9]
killing Molt-4 cells at different concentrations (Figure 1), in words (Molt-4 cells [1]): comparable to A-1331852 | EC50 (Molt-4 cells [1]; [5]): < 0.01 µM | EC50 (Molt-4 cells [1]; [6]): < 0.01 µM | activity for killing senescent cells at lower concentrations compared to A-1331852 (HEF cells; HEF cell model, 0.01 µM and 0.03 µM): better activity for killing senescent cells at lower concentrations | killing senescent HEF cells (HEF cells; etoposide-induced senescent vs normal HEF cells, Figures 3A-3F): efficiently and selectively kill senescent HEF cells | toxicity on normal non-senescent HEF cells (HEF cells): no toxicity on normal non-senescent HEF cells | degradation of the Bcl-xL protein (Bcl-xL protein): had the ability to degrade the Bcl-xL protein | cell killing activity after addition of pomalidomide (+poma) compared to without (-poma) (Molt-4 cells [2]): significantly reduced cell killing activity | platelet number in peripheral blood, in words (platelets; 5 mg/kg, Figure 5B): slightly decrease in platelet number | activity for killing senescent cells at lower concentrations compared to A-1331852 (MRC5 cells): superior to that of A-1331852 | selectivity for senescent cells (MRC5 cells): better selectivity for senescent cells

O=C1CCN(c2ccc(N3CCC(CN4CCN(CC#Cc5ccc(OCCCc6ccc(N7CCc8cccc(C(=O)Nc9nc%10ccccc%10s9)c8C7)nc6C(=O)O)c(F)c5)CC4)CC3)cc2F)C(=O)N1 [APQ10-3]
killing Molt-4 cells at different concentrations (Figure 1), in words (Molt-4 cells [1]): comparable to A-1331852 | EC50 (Molt-4 cells [1]; [5]): < 0.01 µM | EC50 (Molt-4 cells [1]; [6]): < 0.01 µM | killing effects for senescent cells (BJ cells): highly selective and potent killing effects for senescent cells | killing effect for the normal early-passage BJ cells (BJ cells): without significant killing effect for the normal early-passage BJ cells

O=C1CCN(c2ccc(N3CCN(CC#Cc4ccc(OCCCc5ccc(N6CCc7cccc(C(=O)Nc8nc9ccccc9s8)c7C6)nc5C(=O)O)c(F)c4)CC3)cc2F)C(=O)N1 [APQ902]
killing Molt-4 cells at different concentrations (Figure 1), in words (Molt-4 cells [1]): comparable to A-1331852 | EC50 (Molt-4 cells [1]; [5]): < 0.01 µM | EC50 (Molt-4 cells [1]; [6]): < 0.01 µM | killing effects for senescent cells (BJ cells): highly selective and potent killing effects for senescent cells | killing effect for the normal early-passage BJ cells (BJ cells): without significant killing effect for the normal early-passage BJ cells | degradation of the Bcl-xL protein (Bcl-xL protein): had the ability to degrade the Bcl-xL protein | cell killing activity after addition of pomalidomide (+poma) compared to without (-poma) (Molt-4 cells [2]): significantly reduced cell killing activity | activity for killing senescent cells at lower concentrations compared to A-1331852 (MRC5 cells): superior to that of A-1331852 | selectivity for senescent cells (MRC5 cells): better selectivity for senescent cells

Cc1c(-c2ccc(N3CCc4cccc(C(=O)Nc5nc6ccccc6s5)c4C3)nc2C(=O)O)cnn1CC12CC3CC(CC(C3)C1)C2 [Compound A-1331852, A-1331852, reference compound]
killing Molt-4 cells at different concentrations (Figure 1), in words (Molt-4 cells [1]): highest cellular activity in the test | EC50 (Molt-4 cells [1]; [5]): < 0.01 µM | toxicity on normal non-senescent HEF cells (HEF cells): toxic killing effects on normal non-senescent HEF cells | toxicity on platelets (platelets; 0.5 mg/kg, Figure 5A): severe toxicity on platelets | platelet number in peripheral blood (platelets; 5 mg/kg, Figure 5B): below 100 × 10^9/L | clearance rate (metabolic clearance rate) ([3]; human liver microsomes): 53.07 µL/min/mg | Clint [3, 7]: 53.07 µL/min/mg protein | T1/2 [3, 7]: 26.12 min | clearance rate (metabolic clearance rate) ([4]; mouse liver microsomes): 18.43 µL/min/mg | Clint [4, 8]: 18.43 µL/min/mg protein | T1/2 [4, 8]: 75.21 min
